Assay results: publication PMC3071891 (Journal of inorganic biochemistry, 2010)
Read-outs that look alike come from different tables or passages of the source.

How the values were obtained:
[1] = target: T1, Giardia lamblia fructose 1,6-bisphosphate aldolase (GlFBPA) (Giardia intestinalis, UniProt A8B2U2); assay: GlFBPA inhibition constants, steady-state kinetics
[2] = target: T1, Giardia lamblia fructose 1,6-bisphosphate aldolase (GlFBPA); details: read-out: GlFBPA inhibition constant (Ki); inert substrate analog; ref [25]; cited from earlier work

T1 sequence (A8B2U2 whole entry): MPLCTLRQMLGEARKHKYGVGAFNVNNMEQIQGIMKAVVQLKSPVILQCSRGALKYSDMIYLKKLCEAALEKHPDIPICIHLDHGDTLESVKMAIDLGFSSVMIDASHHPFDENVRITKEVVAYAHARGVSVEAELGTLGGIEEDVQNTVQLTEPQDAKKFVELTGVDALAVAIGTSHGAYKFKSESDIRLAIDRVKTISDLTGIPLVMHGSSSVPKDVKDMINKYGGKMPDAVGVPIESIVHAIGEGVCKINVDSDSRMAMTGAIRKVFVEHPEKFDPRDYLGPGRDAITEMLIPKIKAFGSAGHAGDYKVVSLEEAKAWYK

Compound | Ki [1] [µM] | Ki [2] [µM]
O=c1c(O)cccn1CP(=O)(O)O [Compound 1, N-phosphonomethyl-3-hydroxy-2-pyridone] | 1200 ± 200 | –
O=C(COP(=O)(O)O)[C@@H](O)[C@@H](O)[C@H](O)COP(=O)(O)O [TBP, tagatose 1,6-bisphosphate] | – | 1
